In one series the test system is PBMC. In words: Inhibition of TNFalpha release in human PBMC by ELISA assay. It counts as functional, cell-based. A general note: ELISA stands for enzyme-linked immunosorbent assay.
A further series has as its system Blood. In words: Inhibition of TNFalpha release in LPS-stimulated human whole blood by ELISA assay. It counts as functional, tissue-based.
Series [1] can be described thus: Solubility of compound in simulated lung fluid by dialysis bag method. It counts as physicochemical.
The nature of series [2]: Antiinflammatory activity in rat assessed as inhibition of LPS-induced lung neutrophilia 10 ug, intratracheally administered 1 hr prior to LPS challenge measured after 8 hrs. It counts as functional, Neutrophil.
Series [3] has as its system Rattus norvegicus. Kind of series: Antiinflammatory activity in rat assessed as inhibition of LPS-induced lung neutrophilia 10 ug, intratracheally administered 1 hr prior to LPS challenge measured after 2 hrs. The series is classed as functional.
The target in series [4] is T1, Glucocorticoid receptor (Homo sapiens) (UniProt P04150).
T1 sequence (whole entry): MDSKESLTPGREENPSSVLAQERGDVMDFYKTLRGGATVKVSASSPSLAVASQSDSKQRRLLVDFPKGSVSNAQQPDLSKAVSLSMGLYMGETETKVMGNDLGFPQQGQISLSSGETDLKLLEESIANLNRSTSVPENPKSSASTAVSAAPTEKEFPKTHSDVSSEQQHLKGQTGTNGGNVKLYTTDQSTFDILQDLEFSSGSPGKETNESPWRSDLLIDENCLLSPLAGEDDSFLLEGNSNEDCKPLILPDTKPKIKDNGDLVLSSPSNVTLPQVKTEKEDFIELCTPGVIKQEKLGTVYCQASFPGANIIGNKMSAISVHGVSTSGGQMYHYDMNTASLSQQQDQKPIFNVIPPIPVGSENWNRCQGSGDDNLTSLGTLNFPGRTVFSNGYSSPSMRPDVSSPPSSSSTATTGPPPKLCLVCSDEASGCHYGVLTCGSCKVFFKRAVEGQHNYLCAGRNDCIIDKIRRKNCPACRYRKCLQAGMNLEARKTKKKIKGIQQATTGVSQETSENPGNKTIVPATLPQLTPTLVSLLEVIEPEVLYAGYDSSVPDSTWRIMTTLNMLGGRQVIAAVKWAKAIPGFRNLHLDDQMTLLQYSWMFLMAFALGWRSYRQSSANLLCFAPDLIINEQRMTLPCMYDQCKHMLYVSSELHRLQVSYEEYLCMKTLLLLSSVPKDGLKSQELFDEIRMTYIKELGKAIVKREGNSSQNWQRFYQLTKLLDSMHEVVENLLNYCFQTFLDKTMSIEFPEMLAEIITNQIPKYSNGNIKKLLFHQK
Description: Agonist activity at human GR assessed as dissociation half life

Series [5] is described as follows: Metabolic stability in human liver microsomes assessed as phase 2 glucuronidation in presence of UDPGA. The series is classed as ADME, Microsome. The following applies: read-out: Stability. For orientation: Microsomes from liver hold many membrane-bound enzymes, among them those of drug oxidation.
The test system of another series is Liver microsomes. Kind of series: Metabolic stability of compound in human liver microsomes assessed as unbound intrinsic clearance by equilibrium dialysis. The series is classed as ADME, Microsome.
Series [6] in a line: Metabolic stability of compound in human liver microsomes assessed as intrinsic clearance by equilibrium dialysis. It counts as ADME, Microsome.
Series [7] can be described thus: Antiinflammatory activity in rat assessed as effective dose for inhibition of LPS-induced lung neutrophilia administered intratracheally 4 hr prior to LPS challenge. It counts as functional, Neutrophil.
The test system of series [8] is Rattus norvegicus. Kind of series: Antiinflammatory activity in rat assessed as inhibition of LPS-induced lung neutrophilia 10 ug, intratracheally administered 1 hr prior to LPS challenge measured after 1 hr. The series is classed as functional.
Series [9] is described as follows: Half life in rat. The series is classed as ADME, organism-based. Conditions: in vivo.
Series [10] is described as follows: Oral bioavailability in rat at 2 mg/kg. The series is classed as ADME, organism-based. The following applies: in vivo.
For series [11], the system named is Rattus norvegicus. Kind of series: Unbound clearance in rat at 0.5 mg/kg, iv. The series is classed as ADME, organism-based. Also noted: dose 0.5 mg/kg, route intravenous. Conditions: in vivo.
A short description of series [12]: Antiinflammatory activity in rat assessed as inhibition of LPS-induced lung neutrophilia 10 ug, intratracheally administered 1 hr prior to LPS challenge measured after 4 hrs. The series is classed as functional, Neutrophil.
In series [13] the test system is Rattus norvegicus. Kind of series: Clearance in rat at 0.5 mg/kg, iv. It counts as ADME, organism-based. Also noted: dose 0.5 mg/kg, route intravenous. The following applies: in vivo.
The next series addresses T2, Glucocorticoid receptor (Homo sapiens, UniProt P04150).
T2 sequence (P04150 whole entry): T1 sequence (whole entry)

The structures appear in SMILES notation. Values after ≈ are worked out from the molar mass of the structure shown.

As a reminder, the IC50 is the midpoint of a concentration-inhibition curve. Higher therefore signals weaker potency. The compound `C[C@]12C=CC(=O)C=C1[C@@H](F)C[C@H]1[C@@H]3C[C@H]4O[C@@H](c5ccc(Cc6ccc(O)cc6)cc5)O[C@@]4(C(=O)CO)[C@@]3(C)C[C@H](O)[C@@]12F` registered an IC50 in the series with PBMC of 0.04 nM.

Take `CCCC1O[C@@H]2C[C@H]3[C@@H]4CCC5=CC(=O)C=C[C@]5(C)[C@H]4[C@@H](O)C[C@]3(C)[C@]2(C(=O)CO)O1` (stereo not given in full) [BUDESONIDE]: the values for the IC50 in the series with Blood and with PBMC were 8.46 nM and 0.96 nM, respectively.

In the case of `C[C@]12C=CC(=O)C=C1[C@@H](F)C[C@H]1[C@@H]3C[C@H]4O[C@@H](c5ccc(CSc6ccc(O)cc6)cc5)O[C@@]4(C(=O)CO)[C@@]3(C)C[C@H](O)[C@@]12F`, in the series on PBMC, the IC50 stood at 0.06 nM.

The term solubility denotes the concentration that dissolves in the medium under given conditions. Broadly, the half-life is the time in which the quantity being followed falls by half. Read a low half-life as rapid decline. By bioavailability is commonly meant the share of a dose that reaches the circulation, judged against a reference dose that is usually intravenous. What is called clearance is the rate of elimination divided by the concentration. Low values mean a low capacity for elimination, high ones a high capacity for elimination. In turn, `CCC(=O)O[C@]1(C(=O)SCF)[C@H](C)C[C@H]2[C@@H]3C[C@H](F)C4=CC(=O)C=C[C@]4(C)[C@@]3(F)[C@@H](O)C[C@@]21C` [FLUTICASONE PROPIONATE] registered a solubility in series [1] of 0.32 µg/mL (≈ 0.639 µM). For the same compound, the “inhibition (INH)” value in series [2] was 10%; with Rattus norvegicus [3], 11%; with Rattus norvegicus [8] it was 29%; in series [12], 8%. The IC50 turned out to be 9.3 nM in the series on Blood and 0.1 nM in the series on PBMC. In [4], this compound came in with a T1/2 of 9.07 h. Also, the microsomal CLint was below 3.5 µL/min/mg in series [5] and 51 µL/min/mg in [6]. The CL free with Liver microsomes was 300 µL/min/mg; in the series with Rattus norvegicus [11], 1800 mL/min/kg. In addition, the ED50 in series [7] worked out at 3 µg. Moreover, in [9], the half-life was 1.1 h. This compound also gave a bioavailability in [10] below 2%. Moreover, the clearance in the series on Rattus norvegicus [13] was 56 mL/min/kg.

The term EC50 denotes the concentration needed to bring the measured effect to its halfway point. A higher EC50 goes with weaker potency. Consider `C[C@]12C=CC(=O)C=C1[C@@H](F)C[C@H]1[C@@H]3C[C@H]4O[C@@H](c5ccc(OC6=CCC(=O)N=N6)cc5)O[C@@]4(C(=O)CO)[C@@]3(C)C[C@H](O)[C@@]12F`, for which the IC50 in the series on PBMC worked out at 0.12 nM. For the same compound, the response on Glucocorticoid receptor was half-maximal at 21.1 nM (EC50).

As to `C[C@]12C=CC(=O)C=C1[C@@H](F)C[C@H]1[C@@H]3C[C@H]4O[C@@H](c5ccc(CSc6ccccc6)cc5)O[C@@]4(C(=O)CO)[C@@]3(C)C[C@H](O)[C@@]12F`, in the series on PBMC, the IC50 turned out to be 0.22 nM.

As to `C[C@]12C=CC(=O)C=C1[C@@H](F)C[C@H]1[C@@H]3C[C@H]4O[C@@H](c5ccc(Cc6ccccc6)cc5)O[C@@]4(C(=O)CO)[C@@]3(C)C[C@H](O)[C@@]12F`, 0.17 nM corresponded to half-maximal inhibition in the series on PBMC (IC50).

In the case of `C[C@]12C=CC(=O)C=C1[C@@H](F)C[C@H]1[C@@H]3C[C@H]4O[C@@H](c5ccc(CN6CCOCC6)cc5)O[C@@]4(C(=O)CO)[C@@]3(C)C[C@H](O)[C@@]12F`, the half-maximal inhibitory concentration (IC50) in the series with PBMC came out at 1.81 nM.

Consider `C[C@]12C=CC(=O)C=C1[C@@H](F)C[C@H]1[C@@H]3C[C@H]4O[C@@H](c5ccc(CSc6cccc(O)c6)cc5)O[C@@]4(C(=O)CO)[C@@]3(C)C[C@H](O)[C@@]12F`, for which the IC50 in the series on PBMC came to 0.15 nM.

The compound `C[C@]12C=CC(=O)C=C1[C@@H](F)C[C@H]1[C@@H]3C[C@H]4O[C@@H](c5ccc(Oc6ccccc6)cc5)O[C@@]4(C(=O)CO)[C@@]3(C)C[C@H](O)[C@@]12F` displayed an IC50 with PBMC of 0.09 nM.

Regarding `CSc1cccc(Sc2ccc([C@@H]3O[C@@H]4C[C@H]5[C@@H]6C[C@H](F)C7=CC(=O)C=C[C@]7(C)[C@@]6(F)[C@@H](O)C[C@]5(C)[C@]4(C(=O)CO)O3)cc2)c1`, the IC50 in the series on Blood amounted to 47.4 nM; in the series with PBMC it was 0.1 nM. The microsomal CLint was below 3.5 µL/min/mg in series [5] and 154 µL/min/mg in [6]. Besides, the CL free is above 3080 µL/min/mg in the series on Liver microsomes and above 18000 mL/min/kg in the series with Rattus norvegicus [11]. The same compound had a half-life in [9] of 1.9 h. In addition, the bioavailability in series [10] was below 0.5%. This compound showed a clearance with Rattus norvegicus [13] of 26 mL/min/kg.

Take `C[C@]12C=CC(=O)C=C1[C@@H](F)C[C@H]1[C@@H]3C[C@H]4O[C@@H](c5ccc(SCc6ccccc6)cc5)O[C@@]4(C(=O)CO)[C@@]3(C)C[C@H](O)[C@@]12F`: in the series with PBMC, the IC50 turned out to be 0.16 nM.

With `C[C@@H]1C[C@H]2[C@@H]3C[C@H](F)C4=CC(=O)C=C[C@]4(C)[C@@]3(F)[C@@H](O)C[C@]2(C)[C@@]1(OC(=O)c1ccco1)C(=O)SCF` [FLUTICASONE FUROATE], the values for the IC50 with Blood and in the series on PBMC were 43 nM and 0.05 nM, respectively.

`C[C@]12C=CC(=O)C=C1[C@@H](F)C[C@H]1[C@@H]3C[C@H]4O[C@@H](c5ccc(-c6ccccc6)cc5)O[C@@]4(C(=O)CO)[C@@]3(C)C[C@H](O)[C@@]12F` registered an IC50 in the series with PBMC of 0.41 nM.

Values taken from ChEMBL document CHEMBL1833833, “Design and synthesis of long acting inhaled corticosteroids for the treatment of asthma” (Bioorg Med Chem Lett, 2011).
